From publication PMC7051184, “C9orf72 arginine-rich dipeptide repeat proteins disrupt karyopherin-mediated nuclear import” (eLife, 2020)
Where a SMILES comes first, the peptide text is derived from it.

How the values were obtained:
importin β = test: Biochemical pulldown (GFP-Trap) for DPR-induced Rango-importin β dissociation; format: binding, human; settings: increasing concentrations of DPRs
Protocol: GFP-Trap magnetic beads (Chromotek, Planegg-Martinsried, Germany) were washed and resuspended in TTBS. At the end of incubation, 8 µl bead suspension was added to each sample and mixed by rotation for 15 min. The supernatant was removed and beads washed 3 times with TTBS before boiling in 20 µl SDS-PAGE sample buffer with 2% β-mercaptoethanol. Samples were separated by SDS-PAGE and anti-GFP western blot performed as detailed below to detect Rango. After detecting the ECL signal, membranes were stained with Coomassie Brilliant R250 to detect importin β. Background-subtracted signals were determined by Image Lab 6.01 (BioRad) and the Rango ECL signal normalized to the importin β signal within each lane.
Supernatant and pellet fractions (for all 5 DPRs, and control/buffer only) were prepared as in the nuclear transport assays, by adding 100 µM 10mers to 2.5 mg/ml HEK lysate in 100 µL TRB. Supernatants were boiled in Laemmli (BioRad) for 5 min. Pellets were boiled for 15 min followed by sonication in order to fully disperse aggregates for SDS-PAGE. Equal volumes of supernatant and pellet fractions were run on 4–12% Bolt Bis-Tris Plus gels (ThermoFisher), transferred to nitrocellulose membrane using an iBlot2 dry blotting system (ThermoFisher). Protein loading was analyzed by BLOT-Faststain (G-biosciences, St. Louis, MO), according to the manufacterers’ instructions. For immunodetection, membranes were blocked with 5% non-fat milk in TBST and probed by sequential incubation with the primary antibodies as detailed in the table below. Detection was by HRP-conjugated secondary antibodies/chemiluminescence using an ImageQuant LAS 4000 system (GE, Chicago, IL). To permit sequential probing of membranes without stripping, signals were quenched by incubation with prewarmed 30% H20_2 for 20 min ([Sennepin et al., 2009]). Band intensities were measured by ImageQuant software. For pellet vs. supernatant fractions, all were expressed as percent untreated control. For blots in Figure 1E, samples were run on 4–20% SDS PAGE minigels (ThermoFisher) and blotted to PVDF membranes (Immun-Blot PVDF, Bio-Rad) using the Bio-Rad TransBlot Turbo apparatus, and probed as above. The chemiluminescence signal was captured with a Bio-Rad ChemiDoc XRS+ digital imaging system.

[1] = target: importin β-mediated nuclear import of Rango (Homo sapiens, UniProt Q14974); test: Permeabilized cell nuclear import assay, Rango, mouse primary cortical neurons; format: cell-based; settings: for Effect on Rango import, time-lapse imaging: 30 min, up to 100 µM; for Effect on Rango import at steady state: 100 µM, fixed at 2 hr
Chain of importin β-mediated nuclear import of Rango (Q14974 whole entry): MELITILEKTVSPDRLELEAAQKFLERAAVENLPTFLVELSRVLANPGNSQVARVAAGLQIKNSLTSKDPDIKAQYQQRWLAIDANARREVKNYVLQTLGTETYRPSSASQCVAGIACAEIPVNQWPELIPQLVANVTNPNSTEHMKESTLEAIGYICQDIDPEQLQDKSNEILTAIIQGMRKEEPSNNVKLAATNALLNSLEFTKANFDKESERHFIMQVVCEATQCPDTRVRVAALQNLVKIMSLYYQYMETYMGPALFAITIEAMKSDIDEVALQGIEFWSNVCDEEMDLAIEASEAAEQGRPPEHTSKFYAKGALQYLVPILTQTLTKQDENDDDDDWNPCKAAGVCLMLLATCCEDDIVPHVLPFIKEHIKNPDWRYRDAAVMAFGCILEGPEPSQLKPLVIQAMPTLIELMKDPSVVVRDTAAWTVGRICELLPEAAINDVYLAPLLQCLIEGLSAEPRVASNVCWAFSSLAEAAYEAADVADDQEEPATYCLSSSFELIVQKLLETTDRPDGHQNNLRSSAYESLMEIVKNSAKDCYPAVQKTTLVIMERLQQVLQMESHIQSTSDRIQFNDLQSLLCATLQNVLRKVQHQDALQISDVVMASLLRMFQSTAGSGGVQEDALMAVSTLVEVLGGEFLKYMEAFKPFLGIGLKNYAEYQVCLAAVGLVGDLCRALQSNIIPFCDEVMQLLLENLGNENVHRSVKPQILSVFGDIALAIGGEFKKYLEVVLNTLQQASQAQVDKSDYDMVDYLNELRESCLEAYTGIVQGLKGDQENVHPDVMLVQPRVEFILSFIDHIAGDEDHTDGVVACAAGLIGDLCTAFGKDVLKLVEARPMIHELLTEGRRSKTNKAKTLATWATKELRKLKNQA
Source text: All animal procedures were approved by the Johns Hopkins Animal Care and Use Committee. Timed pregnant C57BL/6J females (Jackson Laboratory, Bar Harbor, ME) were sacrificed by cervical dislocation at E16, cortex dissociated, and cells plated at 50,000/well on poly-D-lysine/laminin-coated, optical glass-bottom 96-well plates. Growth medium consisted of Neurobasal supplemented with B27, Glutamax, and penicillin/streptomycin (Gibco/ThermoFisher). At 5–7 days in vitro, neurons were rinsed in prewarmed PBS and permeabilized for 4 min. at 37° in a hypotonic solution containing […] Tris-HCl pH 7.5 (to cause osmotic swelling) and 50–150 mg/ml BSA (for molecular crowding/mechanical support). Following permeabilization, cells were placed on ice and rinsed 2 × 5 min in transport buffer (TRB, 20 mM HEPES, 110 mM KOAc, 2 mM Mg(OAc)2, 5 mM NaOAc, 0.5 mM EGTA, 250 mM sucrose, pH 7.3, with protease inhibitor cocktail). All rinse and assay buffers were supplemented with 50 mg/mL BSA. The optimal hypotonic buffer and BSA concentration varied by batch, and was optimized prior to each set of assays for ability to permeabilize the majority of plasma membranes while maintaining nuclear exclusion of a 70 kD fluorescent dextran (ThermoFisher).
Concentrated whole cell lysates were prepared from HEK293T cells (ATCC, mycoplasma negative and validated by STR profiling), grown in 150 mm dishes and sonicated on ice in 1X TRB in the presence of protease inhibitor cocktail (Roche). The lysates were clarified (15 min, 14000 g, 4C), snap frozen in liquid nitrogen, and stored in single use aliquots at −80C. Total HEK cell RNA was extracted using miRNEasy kits according to the manufacturers’ protocol, with DNase digestion (Qiagen). RNA concentration was measured by Nanodrop (ThermoFisher), and all 260/280 ratios were verified to be > 2.0. Energy regeneration (ER) mix consisted of 100 µM ATP, 100 µM GTP, 4 mM creatine phosphate, and 20 U/mL creatine kinase (Roche).
Reaction mixes consisting of 2.5 mg/ml lysate, ER, fluorescent cargo (200 nM Rango and YFP-M9-CFP, 500 nM GST-GFP-NLS), Hoechst, DPRs, RNA, or inhibitors (100 µM importazole (IPZ, Millipore Sigma); 0.8 mg/mL wheat germ agglutinin (WGA, Millipore Sigma) were assembled on ice during cell permeabilization. DPRs or inhibitors were allowed to equilibrate in cell lysate for at least 30 min prior to initiation of transport. Every plate included: (1) Cargo alone: fluorescent cargo, but no ER or lysate, (2) Untreated controls: fluorescent cargo, ER, and lysate, and (3) Inhibitor: fluorescent cargo, ER, lysate, and IPZ (Rango and GST-GFP-NLS reactions) or WGA (YFP-M9-CFP). Preassembled transport reactions were then transferred onto permeabilized cells via multichannel pipette, and allowed to proceed at room temperature for 2 hr (Rango, YFP-M9-CFP) or 4 hr (GST-GFP-NLS). Cells were fixed in 4% paraformaldehyde/PBS, rinsed 2x with PBS, and transferred to 50% glycerol/PBS for immediate imaging.
For a subset of neuron transport assays, transport was monitored live via time lapse imaging every 5 min for 30 min. In a subset of HeLa assays, transport reactions were centrifuged before use at 14,000g × 15 min to separate soluble and insoluble fractions. In another variation, the transport lysate + DPR and ER mix was allowed to preincubate on the permeabilized HeLa cells for 1 hour prior to initiation of transport, rinsed 1x with TRB, and transport initiated with fresh lysate, cargo, and ER.
Multiple non-overlapping fields per well (4 for time-lapse imaging, 9-16 for fixed imaging), were captured at 40x on an ImageXpress Micro XLS high-content microscope (Molecular Devices, San Jose, CA), and the ratio of nuclear to cytoplasmic fluorescence intensity was calculated using the MetaXpress automated translocation-enhanced module. Raw data were filtered to exclude autofluorescence and the mean N/C ratio from wells without ER or cell lysate was subtracted from all values.

[2] = system: passive nuclear influx of GFP; test: Passive import assay, GFP, permeabilized HeLa; format: cell-based, human; settings: preincubation 30–60 min, with energy and lysate; imaged 5 min
[3] = target: passive nuclear influx of 40 kD dextran; test: Passive import assay, 40 kD dextran, permeabilized HeLa; format: cell-based, human; settings: preincubation 30–60 min, with energy and lysate; imaged 5 min

Compound	Displacement of importin β from Rango (GFP nanobody bead co-immunoprecipitation) (importin β)	Effect on Rango import, time-lapse imaging [1]	Effect on passive nuclear influx of GFP [2]	Effect on Rango import at steady state [1]	NCT inhibition in permeabilized neurons ([1]; high concentrations)	Effect on passive nuclear influx of 40-kD dextran [3]
N=C(N)NCCC[C@H](NC(=O)[C@@H]1CCCN1C(=O)[C@H](CCCNC(=N)N)NC(=O)[C@@H]1CCCN1C(=O)[C@H](CCCNC(=N)N)NC(=O)[C@@H]1CCCN1C(=O)[C@H](CCCNC(=N)N)NC(=O)[C@@H]1CCCN1C(=O)[C@H](CCCNC(=N)N)NC(=O)[C@@H]1CCCN1C(=O)[C@H](CCCNC(=N)N)NC(=O)[C@@H]1CCCN1C(=O)[C@H](CCCNC(=N)N)NC(=O)[C@@H]1CCCN1C(=O)[C@H](CCCNC(=N)N)NC(=O)[C@@H]1CCCN1C(=O)[C@H](CCCNC(=N)N)NC(=O)[C@@H]1CCCN1C(=O)[C@H](CCCNC(=N)N)NC(=O)[C@@H]1CCCN1)C(=O)O [PR10] (H-PRPRPRPRPRPRPRPRPRPR-OH; N-terminus and C-terminus assumed)	dose-dependent displacement of importin β from the sensor	dose-dependent inhibition of transport				
GA10: Synthetic 10-mer GA dipeptide repeat with C-terminal lysine and cysteine (GAGAGAGAGAGAGAGAGAGAKC)	little if any effect	no effect	not observed	only trace inhibition	only minimal inhibition at high concentrations	not observed
GPGPGPGPGPGPGPGPGPGPKC [GP10, Synthetic 10-mer GP dipeptide repeat with C-terminal lysine and cysteine]	little if any effect	no effect	not observed	no effect		not observed
PA10: Synthetic 10-mer PA dipeptide repeat with C-terminal lysine and cysteine (PAPAPAPAPAPAPAPAPAPAKC)	little if any effect	no effect	not observed	only trace inhibition		not observed
